Laboratory results reported in patent US12291529B2, “Heterocyclic GLP-1 agonists” (Gasherbrum Bio, Inc., priority 2023, dated 2025).
≈ marks a conversion by molar mass, not a printed value.

Assays:
FaSSIF solubility = type: physicochemical; conditions: FaSSIF buffer, 25 °C, fassif, thermodynamic from solid
Procedure: Stock solution of test article and control compound (chlorpromazine, astemizole, and phenytoin) were prepared in DMSO at 10 mM. 50 μL each of stock solutions were dried down, followed by reconstitution to 1 mM with FaSSIF buffer in the well. The incubation plate was shaked at 25° C., 1,100 rpm for 4 hours. And then, the samples were filtered by using the vacuum manifold. 10 μL aliquots from each well was transferred to a new 96-well plate and adjust the volume to 80 μL with blank buffer. Using a mixture of H2O and acetonitrile containing internal standard (1:1) to dilute the sample 100-fold, 500-fold and 2,500-fold. The samples are evaluated by LC/MS/MS analysis. All compounds were tested in singlet.

[1] = Caco-2 permeability / efflux study; type: in vitro ADME; conditions: human; for Papp at 2 h, 10 μM: Caco-2, pH 7.4, 10 μM, 37° C., pH 7.4, 0.5% BSA, read-out: Caco-2 Perm; for efflux ratio at 2 h, 10 μM: Caco-2, pH 7.4, Caco-2 efflux ratio
Procedure: Incubations with Caco-2 cell monolayers were performed in duplicate in a 96-well Transwell plate. Transport buffer solution (HBSS, 10 mM HEPES, pH 7.4, with 0.5% BSA) containing test article (10 μM), and either the control compounds metoprolol (10 μM), cimetidine (10 μM) and erythromycin (10 μM), was added to appropriate donor wells of the apical or basolateral plate. The transport buffer with DMSO was added to appropriate wells of receiver wells. Following incubation at 37° C. for 2 hours, the cell plates were removed and 50 μL samples from both apical and basolateral sides were transferred into new 96-well plates. Subsequently, 200 μL of acetonitrile containing internal standard was added to all samples to precipitate protein prior to analysis by UPLC-MS/MS. Lucifer yellow was used as a marker to confirm the integrity of the cell monolayers after 2 hours incubation.

GLP-1 Receptor = GLP-1 Receptor (Homo sapiens, UniProt P43220); test: GLP-1R agonist cAMP stimulation assay (HEK293/GLP1R/CRE-LUC cells, Cisbio cAMP dynamic 2 kit); type: cell-based
Summary of the method: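 cAMP was measured by HTRF (d2/cryptate, 1 h RT, 665 and 615 nm). Beforehand, compounds in half-log series were incubated 30 min at 37 °C with GLP-1R/CRE-Luc HEK293 cells (1000 per well) in IBMX (0.5 mM)-containing DPBS/BSA. Activity scaled between vehicle and maximal control.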

[2] = Rat IV/PO PK study, Method A; type: in vivo, male Sprague Dawley (SD) rats; conditions: for AUC (ng · h/mL)_free form/dose: 5 mpk, free form; for half-life: 1 mg/kg, elimination half life (IV); for half-life / bioavailability: Method A; for bioavailability: PO vs IV, read-out: Bioavailablility (% F)
Procedure: Pharmacokinetics (PK) study was conducted on male Sprague Dawley (SD) rats by two delivery routes intravenous (IV) and/or oral gavage (PO). Rats in IV route (n=3) were free access to food and water. Rats in PO route (n=3) were fasted overnight and fed at 4 hrs post dosing. Test article was formulated in solution (10% solutol HS 15 in saline) for IV route and solution or suspension (10% solutol HS 15 in saline/water) for PO route, respectively. On the day of experiment, test article was administered via vein (e.g. foot dorsal vein) injection (commonly at 1 mg/kg and 5 mL/kg) for IV route or via oral gavage (commonly at 2 or 5 mg/kg and 5 mL/kg) for PO route, respectively. Blood samples were collected via serial bleeding at ˜8 time points from 0.083 to 24 hrs post dose. Approximate 150 μL of blood/time point was collected into K2EDTA tube via tail vein or jugular vein. Blood samples were put on wet ice and centrifuged to obtain plasma samples and plasma samples were submitted to LC-MS/MS for sample analysis. Pharmacokinetics parameters, including elimination half life (t1/2) (IV), area under the curve (AUC) and oral bioavailability (F %), etc. were calculated by non-compartmental model using WinNonlin.

[3] = Rat PO PK study, Method B; type: in vivo, male Sprague Dawley (SD) rats; conditions: for AUC / Cmax: male, Sprague Dawley, plasma, 10% solutol HS 15
Procedure: Pharmacokinetics (PK) study was conducted on male Sprague Dawley (SD) rats by oral gavage (PO). Rats in PO route (n=3) were free access to food and water. […] On the day of experiment, test article was administered via oral gavage (commonly at 10, 30, or 100 mg/kg, with dose volume as 10 mL/kg). Blood samples were collected via serial bleeding at ˜8 time points from 0.25 to 24 hrs post dose. Approximate 150 μL of blood/time point was collected into KzEDTA tube via tail vein or jugular vein. Blood samples were put on wet ice and centrifuged to obtain plasma samples and plasma samples were submitted to LC-MS/MS for sample analysis. Pharmiacokinetics parameters, including Cmax, and area under the curve (AUC), etc. were calculated by non-compartmental model using WinNonlin.

[4] = Table 3, HEK293/GLP1R/CRE-LUC cells, 30 min
[5] = male, Sprague Dawley, plasma, PO, 2 mg/kg, *obtained under method 3A

Sequence of GLP-1 Receptor (P43220 24-463, species assumed): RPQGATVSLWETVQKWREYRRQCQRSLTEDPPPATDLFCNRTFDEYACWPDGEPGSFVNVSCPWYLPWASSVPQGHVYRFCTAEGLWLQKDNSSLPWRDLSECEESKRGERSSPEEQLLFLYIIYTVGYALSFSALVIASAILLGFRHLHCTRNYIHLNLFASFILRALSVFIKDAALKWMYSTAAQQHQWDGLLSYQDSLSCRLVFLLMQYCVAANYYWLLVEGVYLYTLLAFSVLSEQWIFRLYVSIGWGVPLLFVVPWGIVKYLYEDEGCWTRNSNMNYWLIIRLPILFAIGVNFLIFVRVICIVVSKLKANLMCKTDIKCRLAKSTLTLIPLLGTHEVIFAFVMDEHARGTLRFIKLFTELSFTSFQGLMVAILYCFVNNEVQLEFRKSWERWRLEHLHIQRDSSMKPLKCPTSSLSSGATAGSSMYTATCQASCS

solubility at 4 h (FaSSIF solubility)	Papp at 2 h, 10 μM [1]	efflux ratio at 2 h, 10 μM [1]	EC50 (GLP-1 Receptor; [4])	EC50 (GLP-1 Receptor; Table 4)	SMILES	also measured
7.3 µM (≈ 6.38 µg/mL)	0.1 ×10⁻⁶ cm/s	90.8	0.019 nM	0.015 nM	CN=S(C)(=O)c1ccc(-n2ccn(-c3c4c(nn3-c3cc(C)c(F)c(C)c3)CCN(C(=O)c3cc5cc(C6CCOCC6)ccc5n3[C@@]3(c5noc(=O)[nH]5)C[C@@H]3C)[C@H]4C)c2=O)cc1 (single isomer, unassigned) [Compound 121]	–
2.56 µM (≈ 2.27 µg/mL)	0.36 ×10⁻⁶ cm/s	24.1	0.017 nM	0.017 nM	CCS(=O)(=NC)c1ccc(-n2ccn(-c3c4c(nn3-c3cc(C)c(F)c(C)c3)CCN(C(=O)c3cc5cc(C6CCOCC6)ccc5n3[C@@]3(c5noc(=O)[nH]5)C[C@@H]3C)[C@H]4C)c2=O)cc1 (single isomer, unassigned) [Compound 144]	–
2.04 µM (≈ 1.85 µg/mL)	0.33 ×10⁻⁶ cm/s	26	0.023 nM	0.023 nM	CCS(=O)(=NC)c1ccc(-n2ccn(-c3c4c(nn3-c3cc(C)c(F)c(C)c3)CCN(C(=O)c3cc5cc(C6CCOCC6)ccc5n3[C@@]3(c5noc(=O)[nH]5)C[C@@H]3C)[C@H]4C)c2=O)c(F)c1 (single isomer, unassigned) [Compound 149]	AUC (ng · h/mL)_free form/dose ([2]; PO): 4,276/5 mpk ng · h/mL; half-life ([2]; male, Sprague Dawley, plasma): 1.6 h; bioavailability ([2]; male, Sprague Dawley, plasma): 32%
–	0.21 ×10⁻⁶ cm/s	50	0.011 nM	0.011 nM	Cc1cc(-n2nc3c(c2-n2ccn(-c4ccc(S(=N)(=O)C5CCC5)cc4F)c2=O)[C@H](C)N(C(=O)c2cc4cc(C5CCOCC5)ccc4n2[C@@]2(c4noc(=O)[nH]4)C[C@@H]2C)CC3)cc(C)c1F (single isomer, unassigned) [Compound 168]	–
–	0.24 ×10⁻⁶ cm/s	38	0.018 nM	0.014 nM	Cc1cc(-n2nc3c(c2-n2ccn(-c4ccc(S(=N)(=O)C5CC5)cc4F)c2=O)[C@H](C)N(C(=O)c2cc4cc([C@H]5CCOC(C)(C)C5)ccc4n2[C@@]2(c4noc(=O)[nH]4)C[C@@H]2C)CC3)cc(C)c1F (single isomer, unassigned) [Compound 181]	AUC (ng · h/mL)_free form/dose ([2]; PO): 6,097/5 mpk ng · h/mL; half-life ([2]; male, Sprague Dawley, plasma): 1.66 h; bioavailability ([2]; male, Sprague Dawley, plasma): 30%
–	0.19 ×10⁻⁶ cm/s	45	0.001 nM	0.011 nM	Cc1cc(-n2nc3c(c2-n2ccn(-c4ccc(S(=N)(=O)C5CCC5)cc4F)c2=O)[C@H](C)N(C(=O)c2cc4cc([C@H]5CCOC(C)(C)C5)ccc4n2[C@@]2(c4noc(=O)[nH]4)C[C@@H]2C)CC3)cc(C)c1F (single isomer, unassigned) [Compound 183]	–
9.9 µM (≈ 9.71 µg/mL)	0.34 ×10⁻⁶ cm/s	11.4	0.033 nM	0.033 nM	CN=S(=O)(c1ccc(-n2ccn(-c3c4c(nn3-c3cc(C)c(F)c(C)c3)CCN(C(=O)c3cc5cc([C@H]6CCOC(C)(C)C6)ccc5n3[C@@]3(c5noc(=O)[nH]5)C[C@@H]3C)[C@H]4C)c2=O)c(F)c1Cl)C1CC1 (single isomer, unassigned) [Compound 214]	–
7.9 µM (≈ 7.49 µg/mL)	0.32 ×10⁻⁶ cm/s	15.7	0.065 nM	0.068 nM	CCS(=O)(=NC)c1ccc(-n2ccn(-c3c4c(nn3-c3cc(C)c(F)c(C)c3)CCN(C(=O)c3cc5cc([C@H]6CCOC(C)(C)C6)ccc5n3[C@@]3(c5noc(=O)[nH]5)C[C@@H]3C)[C@H]4C)c2=O)c(F)c1C (single isomer, unassigned) [Compound 216]	–
–	0.09 ×10⁻⁶ cm/s	20.7	0.083 nM	0.059 nM	CN=S(=O)(c1ccc(-n2ccn(-c3c4c(nn3-c3cc(C)c(F)c(C)c3)CCN(C(=O)c3cc5cc([C@H]6CCOC(C)(C)C6)ccc5n3[C@@]3(c5noc(=O)[nH]5)C[C@@H]3C)[C@H]4C)c2=O)cc1NC)C1CC1 (single isomer, unassigned) [Compound 218]	–
4.05 µM (≈ 3.72 µg/mL)	0.34 ×10⁻⁶ cm/s	38.5	0.03 nM	0.031 nM	CN=S(=O)(c1ccc(-n2ccn(-c3c4c(nn3-c3cc(C)c(F)c(C)c3)CCN(C(=O)c3cc5cc(C6CCOCC6)ccc5n3[C@@]3(c5noc(=O)[nH]5)C[C@@H]3C)[C@H]4C)c2=O)c(F)c1)C1CC1 (single isomer, unassigned) [Compound 221]	–
4 µM (≈ 3.5 µg/mL)	0.126 ×10⁻⁶ cm/s	51.7	–	0.022 nM	CCS(=O)(=O)c1ccc(-n2ccn(-c3c4c(nn3-c3cc(C)c(F)c(C)c3)CCN(C(=O)c3cc5cc(C6CCOCC6)ccc5n3[C@@]3(c5noc(=O)[nH]5)C[C@@H]3C)[C@H]4C)c2=O)cc1 [Compound C-1, reference compound]	–
9.3 µM (≈ 8.25 µg/mL)	< 0.05 ×10⁻⁶ cm/s	> 62.6	–	0.043 nM	Cc1cc(-n2nc3c(c2-n2ccn(-c4ccc(S(=O)(=O)C5CC5)cc4)c2=O)[C@H](C)N(C(=O)c2cc4cc(C5CCOCC5)ccc4n2[C@@]2(c4noc(=O)[nH]4)C[C@@H]2C)CC3)cc(C)c1F [Compound C-2, reference compound]	–
6.45 µM (≈ 5.65 µg/mL)	0.05 ×10⁻⁶ cm/s	78.1	–	–	CNS(=O)(=O)c1ccc(-n2ccn(-c3c4c(nn3-c3cc(C)c(F)c(C)c3)CCN(C(=O)c3cc5cc(C6CCOCC6)ccc5n3[C@@]3(c5noc(=O)[nH]5)C[C@@H]3C)[C@H]4C)c2=O)cc1 [Compound C-3, reference compound]	–
5.38 µM (≈ 4.85 µg/mL)	0.18 ×10⁻⁶ cm/s	16.7	–	0.14 nM	Cc1cc(-n2nc3c(c2-n2ccn(-c4ccc(N5CCCS5(=O)=O)cc4)c2=O)[C@H](C)N(C(=O)c2cc4cc(C5CCOCC5)ccc4n2[C@@]2(c4noc(=O)[nH]4)C[C@@H]2C)CC3)cc(C)c1F [Compound C-4, reference compound]	–
0.4 µM (≈ 0.353 µg/mL)	0.21 ×10⁻⁶ cm/s	–	–	–	Cc1cc(-n2nc3c(c2-n2ccn(-c4ccc5c(cnn5C)c4F)c2=O)[C@H](C)N(C(=O)c2cc4cc([C@H]5CCOC(C)(C)C5)ccc4n2[C@@]2(c4noc(=O)[nH]4)C[C@@H]2C)CC3)cc(C)c1F [Compound C-5, reference compound]	rat PK dose proportionality of exposure ([3]; free form, same formulation): plateaued at 10 mg/kg; AUC ([3]; 10 mg/kg): 14500 ng·h/mL; Cmax ([3]; 10 mg/kg): 1250 ng/mL; AUC ([3]; 30 mg/kg): 13000 ng·h/mL; Cmax ([3]; 30 mg/kg): 1010 ng/mL; half-life ([2]; male, Sprague Dawley, plasma): 8.1 h; bioavailability ([2]; male, Sprague Dawley, plasma): 36%; AUC [2, 5]: 4400 ng·h/mL; Cmax [2, 5]: 573 ng/mL
